Laboratory results as given in patent publication US10167276B2, “Compounds and methods for inhibiting JAK” (Dizal (Jiangsu) Pharmaceutical Co., Ltd., priority 2015, dated 2019).

Assays:
[1] = system: STAT3 phosphorylation in NCI-H1975 cells; assay: Cellular pSTAT3 assay in NCI-H1975 cells; assay type: cell-based; conditions: Homo sapiens, 2 hours with compound
Outline: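 NCI-H1975 cells (RPMI, 10% FBS) were treated with compound for 2 hours at 37° C., then lysed. Phospho-STAT3 in lysates was quantified by sandwich ELISA (STAT3 capture, phospho-STAT3 detection, HRP secondary, TMB), read at 450 nm.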

[2] = system: NCI-H1975 tumor xenografts; assay: In vivo efficacy with osimertinib in the H1975 xenograft model; set-up: species or system mice; conditions: oral, 18 days
Experimental: (§1) Tumor volume was measured twice a week.
NCI-H1975 cells (a human NSCLC cell line with L858R and T790M mutations in the EGFR gene) tumor cells were implanted subcutaneously in female NCr nude mice (Taconic Laboratories), 3×10^6 cells/mouse.

[3] = system: PC-9 tumor xenografts; assay: In vivo efficacy with gefitinib in the PC-9 xenograft model; set-up: species or system mice
Experimental: as §1

[4] = system: NCI-H1650 tumor xenografts; assay: In vivo efficacy with gefitinib in the H1650 xenograft model; set-up: species or system mice; conditions: Example 32 25 or 50 mg/kg BID + gefitinib 6.25 mg/kg QD, oral, 21 days
Experimental: as §1
(§2) Twenty-three days after cell implantation, the mice were randomized into 6 groups (9 mice/group, average tumor volume 257 mm^3, range 205-303 mm^3). […] Drug levels in plasma were measured by LC/MS, using a Linear Ion Trap Quadrupole LC/MS/MS Mass Spectrometer (QTRAP 5500 model 1024945-BB, AB Sciex Instruments), with separation on a Waters Xbridge C18 column.

[5] = system: LG1049 non-small cell lung cancer PDX tumor xenografts; assay: In vivo efficacy with osimertinib in the LG1049 xenograft PDX model
Experimental: LG1049 non-small cell lung cancer PDX tumor xenografts were grown subcutaneously in female NSG mice. […] Tumor volume was measured twice a week.
(§3) LG1 049 tumor fragments were implanted subcutaneously in female NSG mice (JAX Stock No. 005557).

[6] = system: NCI-H1975 tumor xenografts; assay: In vivo efficacy of intermittent Example 32 dosing schedules with osimertinib in the H1975 xenograft model; set-up: species or system mice; conditions: oral
Experimental: as §1
NCI-H1975 cells (a human NSCLC cell line with L858R and T790M mutations in the EGFR gene), were implanted subcutaneously in female NCr nude mice (Taconic Laboratories), 3×10^6 cells/mouse.

[7] = system: pSTAT3 (Y705); assay: pSTAT3 (Y705) levels in NCI-H1975 tumor lysates (sandwich ELISA); assay type: in vivo, mice; conditions: increasing dose of Example 32 (12.5 to 50 mg/kg BID), one day of treatment
Experimental: (§4) NCI-H1975 cells (a human NSCLC cell line with L858R and T790M mutations in the EGFR gene) tumor cells were implanted subcutaneously in female NCr nude mice (Taconic Laboratories), 3×10^6 cells/mouse. […] Drug levels in plasma were measured by LC/MS, using a Linear Ion Trap Quadrupole LC/MS/MS Mass Spectrometer (QTRAP 5500 model 1024945-BB, AB Sciex Instruments), with separation on a Waters Xbridge C18 column.

[8] = system: pSTAT3 (Y705); assay: pSTAT3 (Y705) levels in PC-9 tumor lysates (Western Blot); assay type: in vivo, mice; conditions: increasing dose of Example 32 (12.5, 50 mg/kg BID) with gefitinib; 2, 8 and 24 hours after the AM dose, last day
[9] = system: pSTAT3 (Y705); assay: pSTAT3 levels in NCI-H1650 tumor lysates (Western Blot); assay type: in vivo, mice; conditions: Example 32 as single agent and in combination with gefitinib, after one day of treatment
Experimental: as §2

[10] = system: pSTAT3 (Y705); assay: pSTAT3 levels in LG1049 tumor lysates (Western Blot); assay type: in vivo, mice; conditions: Example 32 25 mg/kg BID, 5 days of treatment, 4H after the final dose
Description: LG1 049 tumor fragments were implanted subcutaneously in female NSG mice (JAX Stock No. 005557). Once tumor volumes reached ˜125-275 mm^3, mice were randomized into 5 groups (10 mice/group, average tumor volume 189 mm^3, range 138-253 mm^3).

[11] = Drug levels in plasma by LC/MS, NCI-H1975 tumor bearing mice; assay type: in vivo; conditions: increasing dose of Example 32 (12.5 to 50 mg/kg BID), one day of treatment
Experimental: as §4

[12] = system: pEGFR; assay: pEGFR levels in LG1049 tumor lysates (Western Blot); assay type: in vivo, mice; conditions: osimertinib 25 mg/kg QD, 5 days of treatment, 4H after the final dose
Description: as §3

Row | Structure (SMILES) | IC50 [1] | antitumor activity as a single agent ([2]; Example 32 12.5, 25, 50 mg/kg BID) | antitumor activity in combination with osimertinib, compared to osimertinib alone ([2]; Example 32 12.5-50 mg/kg BID + osimertinib 2.5 mg/kg QD) | antitumor activity in combination with gefitinib, compared to gefitinib ([3]; Example 32 12.5 or 50 mg/kg BID + gefitinib 6.25 mg/kg QD, oral, 21 days) | antitumor activity in combination with gefitinib, compared to single agent gefitinib ([3]; gefitinib + 12.5 mg/kg Example 32 daily) | antitumor activity in combination with gefitinib, compared to single agent gefitinib ([3]; gefitinib + 50 mg/kg Example 32 dosed 2 days on/5 days off) | antitumor activity in combination with gefitinib, compared to single agent gefitinib [4] | tumor regression in combination with osimertinib, compared to osimertinib alone ([5]; Example 32 25 mg/kg BID + osimertinib 25 mg/kg QD, oral, 28 days) | antitumor activity as a single agent ([5]; Example 32 25 mg/kg BID, oral, 18 days) | body weight, single agent treatment ([5]; mouse, in vivo) | antitumor activity as a single agent ([6]; Example 32 50 mg/kg BID, 19 days) | antitumor activity in combination with osimertinib, compared to osimertinib alone ([6]; Example 32 12.5-50 mg/kg BID, continuous or intermittent schedules + osimertinib 2.5 mg/kg QD) | pSTAT3 knockdown in tumors [7] | pSTAT3 knockdown in tumors [8] | pSTAT3 knockdown in tumors [9] | pSTAT3 knockdown in tumors [10] | level of Example 32 in plasma [11] | body weight, single agent treatment ([5]; LG1049 tumor bearing mice, weight loss stated to depend on tumor growth) | pEGFR knockdown in tumors [12]
1 | COc1nn(C)cc1Nc1nccc(-c2c[nH]c3c(NC(=O)[C@@H](C)N4CCN(C)CC4)cccc23)n1 [Example 32, (2R)-N-(3-{2-[(3-methoxy-1-methyl-1H-pyrazol-4-yl)amino]pyrimidin-4-yl}-1H-indol-7-yl)-2-(4-methylpiperazin-1-yl)propanamide] | 161 nM | only weak antitumor activity relative to vehicle control treatment | enhanced the antitumor activity of osimertinib | enhanced the antitumor activity of gefitinib | greater activity than single agent gefitinib, but did not quite achieve statistical significance | greater activity than single agent gefitinib, but did not quite achieve statistical significance | enhanced the antitumor activity of gefitinib | enhanced the tumor regression induced by osimertinib | no significant activity relative to vehicle control treatment | significant weight loss | no significant activity relative to vehicle control treatment | enhanced the antitumor activity of osimertinib | dose dependent increase in pSTAT3 knockdown | dose dependent increase in the duration of pSTAT3 knockdown | Knockdown of pSTAT3 was observed | robust knockdown | increasing level of Example 32 in plasma | – | –
2 | C=CC(=O)Nc1cc(Nc2nccc(-c3cn(C)c4ccccc34)n2)c(OC)cc1N(C)CCN(C)C [osimertinib, reference compound] | – | – | – | – | – | – | – | – | – | – | – | – | – | – | – | – | – | lack of significant weight loss | robust knockdown
